Source: patent US11110168B2, “Nanoparticles, controlled-release dosage forms, and methods for delivering an immunotherapeutic agent” (NORTH CAROLINA STATE UNIVERSITY, priority 2016, dated 2021)

B1: cDNCs (with CpG, without cutting sites): control DNA nano-cocoon with CpG, without HhaI cutting sites (nucleic acid)
chain: ATATGTCGTCGTTCGAACGACGTTATATAACGTCGTTCGAACGACGTTATATGTCGTCGTTCGAACGACGTT
modifications: listed as DNA, chemistry not fully specified; the letters are possibly those of the target site

How the values were obtained:
[1] = In vivo retention and biodistribution after MN administration in mice bearing B16F10 melanoma; set-up: species or system mouse; conditions: for Cy5.5 signal around the melanoma site (retention): MN administration, imaging day 1, day 3, day 5
Experimental: HA-NPs formulation with conjugated 1-MT and encapsulated aPD1 can improve their physicochemical properties. Therefore, the in vivo kinetics of free aPD1/1-MT and NPs following MN administration were evaluated in the mice model bearing B16F10 melanoma. The drug retention capability was tested at the tumor site after the MN administration. In vivo […] imaging was conducted at day 1, day 3 and day 5 post injection of the MN loaded with aPD1 and Cy5.5-1-MT-HA or free Cy5.5-1-MT. […] A similar pattern was observed compared to the biodistribution at the tumor site and other organs in the control group. […] The sustained high concentrations of the drugs within tumor regions as well as in peripheral circulation would enhance the immune system capability to treat not only primary tumor but also metastatic tumors in the body.
For the fluorescent NPs, Cyanine5.5 NHS ester (Lumiprobe, Cy5.5) was covalently coupled to the primary amines of the aPD1 and 1-MT. The Cy5.5 was dissolved in anhydrous DMSO immediately before use, at a concentration of 10 mg/ml. Cy5.5 and 1-MT reacted at optimal ratio of 5:1. For the conjugation with aPD1, 40 μg Cy5.5 per mg of antibody was mixed immediately. The tube was wrapped in foil and incubated at room temperature for 1 hour. The unreacted Cy5.5 was removed and the aPD1 was exchanged by gel filtration using Sephadex G-25M.

restriction enzyme HhaI = experiment: Digestion of DNCs by restriction enzyme HhaI, gel electrophoresis; format: biochemical; conditions: treated with HhaI
Experimental: Release studies were performed at 37° C. with constant agitation in PBS+10% fetal ovine serum. PBS, MMP-9 (500 ng/mL, Sigma) or Lipase (10 000 U, Sigma) were added to samples to study the DNA and antibody release. The DNA disintegration was analyzed by agarose gel electrophoresis using 1% (w/v) agarose gel and the antibody release was determined by IgG total ELISA kit (eBioscience).
Two different control DNCs (cDNC) with a non-specific sequence were synthesized (Table 1) to verify the design.
As shown in agarose gels (FIG. 7), without HhaI treatment, these cDNCs cannot migrate in the gel as DNCs.

Molecule | Cy5.5 signal around the melanoma site (retention) [1] | biodistribution in the tumor and the major organs ([1]; Cy5.5-labeled 1-MT after MN administration) | cleavage by HhaI (gel electrophoresis) (restriction enzyme HhaI)
1-methyl-DL-tryptophan [1-MT] | little signal could be detected |  | 
Cn1cc(CC(N)C(=O)O)c2ccccc21 (racemic) [1-MT, 1-methyl-DL-tryptophan] | quickly cleaved from the patch and eliminated by the body within one day | highest accumulations in the tumor followed by the lung and liver | 
cDNC (with cutting sites, without CpG): control DNA nano-cocoon with HhaI cutting sites, without CpG (GTATTATTTCGAAATAATTTGTATTATT; 5' phosphate, chemistry not fully specified; the letters are possibly those of the target site) |  |  | readily cut into smaller homogeneous fragments
B1 |  |  | resistant to cleavage by HhaI
